Measurements reported in patent US6737383B1, “Herbicidal oxadiazolidines” (priority 1999, dated 2004).

Legend:
morningglory = test: Test B pre/postemergence morningglory; type: in vivo, Ipomoea hederacea
In short: (§1)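 Response is a visual 0-to-10 score relative to untreated plants, where 0 means no effect and 10 means complete control, taken twelve to sixteen days after application. Treatments went onto soil at planting and onto foliage of 1- to 4-leaf plants, using a surfactant-containing non-phytotoxic solvent.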

wheat = test: Test B pre/postemergence wheat; type: in vivo, Triticum aestivum
In short: as §1

crabgrass = test: Test B pre/postemergence crabgrass; type: in vivo, Digitaria sanguinalis
In short: as §1

rape = test: Test B pre/postemergence rape; type: in vivo, Brassica napus
In short: as §1

soybean = test: Test B pre/postemergence soybean; type: in vivo, Glycine max
In short: as §1

sugar beet = test: Test B pre/postemergence sugar beet; type: in vivo, Beta vulgaris
In short: as §1

bedstraw = test: Test B pre/postemergence bedstraw; type: in vivo, Galium aparine
In short: as §1

giant foxtail = test: Test B pre/postemergence giant foxtail; type: in vivo, Setaria faberii
In short: as §1

purple nutsedge = test: Test B pre/postemergence purple nutsedge; type: in vivo, Cyperus rotundus
In short: as §1

surinam grass = test: Test B pre/postemergence surinam grass; type: in vivo, Brachiaria decumbens
In short: as §1

velvetleaf = test: Test B pre/postemergence velvetleaf; type: in vivo, Abutilon theophrasti
In short: as §1

cocklebur = test: Test B pre/postemergence cocklebur; type: in vivo, Xanthium strumarium
In short: as §1

blackgrass = test: Test B pre/postemergence blackgrass; type: in vivo, Alopecurus myosuroides
In short: as §1

pigweed = test: Test B pre/postemergence pigweed; type: in vivo, Amaranthus retroflexus
In short: as §1

wild oat = test: Test B pre/postemergence wild oat; type: in vivo, Avena fatua
In short: as §1

corn = test: Test B pre/postemergence corn; type: in vivo, Zea mays
In short: as §1

[1] = Postemergence, Rate 62 g/ha, scale of 0 to 10, 0 is no effect, 10 is complete control
[2] = Postemergence, Rate 125 g/ha, scale 0 to 10, 0 is no effect, 10 is complete control
[3] = Postemergence, Rate 500 g/ha, scale of 0 to 10 where 0 is no effect and 10 is complete control
[4] = Preemergence, Rate 62 g/ha, scale 0 to 10 (0 no effect, 10 complete control)
[5] = Preemergence, Rate 125 g/ha, scale 0 to 10, 0 is no effect, 10 is complete control
[6] = Preemergence, Rate 500 g/ha, scale of 0 to 10 where 0 is no effect and 10 is complete control
[7] = Rate 250 g/ha, Postemergence, scale of 0 to 10 where 0 is no effect and 10 is complete control

CCCCCn1c(=O)on(C(=O)N(c2ccccc2)C(C)C)c1=O [Compound 557]
Morningglory plant response rating (morningglory; [1]): 5 | Morningglory plant response rating (morningglory; [2]): 8 | Plant response rating, Morningglory (morningglory; [3]): 8 | Morningglory plant response rating (morningglory; [4]): 0 | Morningglory plant response rating (morningglory; [5]): 0 | Morningglory plant response rating (0 to 10 scale) (morningglory; Preemergence, Rate 250 g/ha): 0 | Morningglory plant response rating (morningglory; [6]): 0 | Wheat plant response rating (wheat; [1]): 0 | Plant response rating, Wheat (wheat; [3]): 0 | Wheat plant response rating (wheat; [4]): 0 | Wheat plant response rating (wheat; [5]): 0 | Wheat plant response rating (0 to 10 scale) (wheat; Preemergence, Rate 250 g/ha): 0 | Wheat plant response rating (wheat; [6]): 3 | Plant response rating, Wheat (wheat; [7]): 0 | Crabgrass plant response rating (crabgrass; [1]): 0 | Crabgrass plant response rating (crabgrass; [2]): 5 | Plant response rating, Crabgrass (crabgrass; [3]): 4 | Crabgrass plant response rating (crabgrass; [4]): 9 | Crabgrass plant response rating (crabgrass; [5]): 9 | Crabgrass plant response rating (0 to 10 scale) (crabgrass; Preemergence, Rate 250 g/ha): 10 | Crabgrass plant response rating (crabgrass; [6]): 10 | Plant response rating, Crabgrass (crabgrass; [7]): 4 | Rape plant response rating (rape; [1]): 0 | Rape plant response rating (rape; [2]): 0 | Plant response rating, Rape (rape; [3]): 0 | Rape plant response rating (rape; [4]): 0 | Rape plant response rating (rape; [5]): 0 | Rape plant response rating (0 to 10 scale) (rape; Preemergence, Rate 250 g/ha): 0 | Rape plant response rating (rape; [6]): 2 | Plant response rating, Rape (rape; [7]): 0 | Soybean plant response rating (soybean; [1]): 0 | Plant response rating, Soybean (soybean; [3]): 2 | Soybean plant response rating (soybean; [4]): 0 | Soybean plant response rating (soybean; [5]): 0 | Soybean plant response rating (0 to 10 scale) (soybean; Preemergence, Rate 250 g/ha): 0 | Soybean plant response rating (soybean; [6]): 0 | Plant response rating, Soybean (soybean; [7]): 0 | Sugarbeets plant response rating (sugar beet; [1]): 0 | Plant response rating, Sugarbeets (sugar beet; [3]): 0 | Sugarbeets plant response rating (sugar beet; [4]): 2 | Sugarbeets plant response rating (sugar beet; [5]): 3 | Sugarbeets plant response rating (0 to 10 scale) (sugar beet; Preemergence, Rate 250 g/ha): 3 | Sugarbeets plant response rating (sugar beet; [6]): 4 | Plant response rating, Sugarbeets (sugar beet; [7]): 0 | Bedstraw plant response rating (bedstraw; [1]): 0 | Bedstraw plant response rating (bedstraw; [4]): 0 | Bedstraw plant response rating (bedstraw; [5]): 0 | Bedstraw plant response rating (0 to 10 scale) (bedstraw; Preemergence, Rate 250 g/ha): 0 | Bedstraw plant response rating (bedstraw; [6]): 0 | Plant response rating, Bedstraw (bedstraw; [7]): 0 | Giant foxtail plant response rating (giant foxtail; [1]): 0 | Giant foxtail plant response rating (giant foxtail; [2]): 6 | Plant response rating, Giant foxtail (giant foxtail; [3]): 6 | Giant foxtail plant response rating (giant foxtail; [4]): 9 | Giant foxtail plant response rating (giant foxtail; [5]): 9 | Giant foxtail plant response rating (0 to 10 scale) (giant foxtail; Preemergence, Rate 250 g/ha): 10 | Giant foxtail plant response rating (giant foxtail; [6]): 10 | Plant response rating, Giant foxtail (giant foxtail; [7]): 6 | Nutsedge plant response rating (purple nutsedge; [1]): 0 | Nutsedge plant response rating (purple nutsedge; [2]): 0 | Plant response rating, Nutsedge (purple nutsedge; [3]): 0 | Nutsedge plant response rating (purple nutsedge; [4]): 0 | Nutsedge plant response rating (purple nutsedge; [5]): 0 | Nutsedge plant response rating (0 to 10 scale) (purple nutsedge; Preemergence, Rate 250 g/ha): 0 | Nutsedge plant response rating (purple nutsedge; [6]): 0 | Plant response rating, Nutsedge (purple nutsedge; [7]): 0 | B. signalgrass plant response rating (surinam grass; [1]): 0 | B. signalgrass plant response rating (surinam grass; [2]): 2 | Plant response rating, B. signalgrass (surinam grass; [3]): 2 | B. signalgrass plant response rating (surinam grass; [4]): 4 | B. signalgrass plant response rating (surinam grass; [5]): 6 | B. signalgrass plant response rating (0 to 10 scale, 0 is no effect, 10 is complete control) (surinam grass; Preemergence, Rate 250 g/ha): 7 | B. signalgrass plant response rating (surinam grass; [6]): 7 | Plant response rating, B. signalgrass (surinam grass; [7]): 2 | Velvetleaf plant response rating (velvetleaf; [1]): 0 | Plant response rating, Velvetleaf (velvetleaf; [3]): 2 | Velvetleaf plant response rating (velvetleaf; [4]): 0 | Velvetleaf plant response rating (velvetleaf; [5]): 0 | Velvetleaf plant response rating (0 to 10 scale) (velvetleaf; Preemergence, Rate 250 g/ha): 0 | Velvetleaf plant response rating (velvetleaf; [6]): 0 | Plant response rating, Velvetleaf (velvetleaf; [7]): 0 | Cocklebur plant response rating (cocklebur; [1]): 0 | Cocklebur plant response rating (cocklebur; [2]): 0 | Plant response rating, Cocklebur (cocklebur; [3]): 0 | Cocklebur plant response rating (cocklebur; [4]): 0 | Cocklebur plant response rating (cocklebur; [5]): 0 | Cocklebur plant response rating (0 to 10 scale) (cocklebur; Preemergence, Rate 250 g/ha): 0 | Cocklebur plant response rating (cocklebur; [6]): 0 | Plant response rating, Cocklebur (cocklebur; [7]): 0 | Blackgrass plant response rating (blackgrass; [1]): 0 | Blackgrass plant response rating (blackgrass; [2]): 0 | Plant response rating, Blackgrass (blackgrass; [3]): 0 | Blackgrass plant response rating (blackgrass; [4]): 6 | Blackgrass plant response rating (blackgrass; [5]): 6 | Blackgrass plant response rating (0 to 10 scale) (blackgrass; Preemergence, Rate 250 g/ha): 8 | Blackgrass plant response rating (blackgrass; [6]): 8 | Plant response rating, Blackgrass (blackgrass; [7]): 0 | Redroot pigweed plant response rating (pigweed; [1]): 0 | Plant response rating, Redroot pigweed (pigweed; [3]): 0 | Redroot pigweed plant response rating (pigweed; [4]): 0 | Redroot pigweed plant response rating (pigweed; [5]): 0 | Redroot pigweed plant response rating (0 to 10 scale) (pigweed; Preemergence, Rate 250 g/ha): 3 | Redroot pigweed plant response rating (pigweed; [6]): 6 | Plant response rating, Redroot pigweed (pigweed; [7]): 0 | Wild oats plant response rating (wild oat; [1]): 0 | Plant response rating, Wild oats (wild oat; [3]): 0 | Wild oats plant response rating (wild oat; [4]): 0 | Wild oats plant response rating (wild oat; [5]): 2 | Wild oats plant response rating (0 to 10 scale) (wild oat; Preemergence, Rate 250 g/ha): 0 | Wild oats plant response rating (wild oat; [6]): 7 | Plant response rating, Wild oats (wild oat; [7]): 0 | Corn plant response rating (corn; [1]): 0 | Corn plant response rating (corn; [2]): 0 | Plant response rating, Corn (corn; [3]): 2 | Corn plant response rating (corn; [4]): 0 | Corn plant response rating (corn; [5]): 0 | Corn plant response rating (0 to 10 scale) (corn; Preemergence, Rate 250 g/ha): 0 | Corn plant response rating (corn; [6]): 0 | Plant response rating, Corn (corn; [7]): 0
